Structures are written as SMILES. Where only a bound is given, the exact number is not on record here.

The % Inhibition is the share of the control response that was lost under treatment. Higher therefore signals a strong effect. As a reminder, the IC50 is the concentration that inhibits the measured activity by half.

One experiment concerns purified human Hsp90. Put plainly: Binding Assay: fluorescence polarization with BODIPY-labeled geldanamycin. The note with it: 5 μM compound, BODIPY-GM 10 nM, Hsp90 30 nM. In a few lines:
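Fluorescence polarization competition with BODIPY-geldanamycin (10 nM final) and human Hsp90 (30 nM final) in HEPES-KOH pH 7.3 buffer with molybdate, NP-40, DTT; 2% DMSO, overnight at room temperature. Read 485/530 nm; percent inhibition from mP normalized to DMSO controls, fluorescent-compound points excluded.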
As for `Nc1ncn(CCc2ccccc2C(F)(F)F)c2nc(Sc3cc4c(cc3Br)OCO4)nc1-2` [Example 291, 8-[(6-Bromo-1,3-benzodioxol-5-yl)thio]-3-{2-[2-(trifluoromethyl)phenyl]ethyl}-3H-purin-6-amine], the “% Inhibition at 5 μM Compound Concentration” value (from here on “% Inhibition”) turned out to be 0.0%.

With `Nc1ncn(CCc2ccccc2)c2nc(Sc3ccc4c(c3)OC(F)(F)O4)nc1-2` [Example 293, 8-[(2,2-Difluoro-1,3-benzodioxol-5-yl)thio]-3-(2-phenylethyl)-3H-purin-6-amine], the “% Inhibition” value is 0.0%.

Regarding `Nc1ncn(CCc2ccccc2Cl)c2nc(Sc3ccc4c(c3)OC(F)(F)O4)nc1-2` [Example 295, 3-[2-(2-Chlorophenyl)ethyl]-8-[(2,2-difluoro-1,3-benzodioxol-5-yl)thio]-3H-purin-6-amine], the “% Inhibition” value came to 0.0%.

For `COc1ccc(CCn2cnc(N)c3nc(Sc4cc5c(cc4Br)OCO5)nc2-3)cc1OC` [Example 297, 8-[(6-Bromo-1,3-benzodioxol-5-yl)thio]-3-[2-(3,4-dimethoxyphenyl)ethyl]-3H-purin-6-amine], the “% Inhibition” value was found to be 8.0%.

For the compound `COc1cccc(Sc2nc3c(N)ncn(CC(=O)c4ccccc4)c-3n2)c1` [Example 299, 2-{6-Amino-8-[(3-methoxyphenyl)thio]-3H-purin-3-yl}-1-phenylethanone], the “% Inhibition” value is reported as 0.0%.

For `Nc1ncn(CCc2ccc(O)cc2)c2nc(Sc3cc4c(cc3Br)OCO4)nc1-2` [Example 301, 4-(2-{6-Amino-8-[(6-bromo-1,3-benzodioxol-5-yl)thio]-3H-purin-3-yl}ethyl)phenol], the “% Inhibition” value is 5.0%.

With `Nc1ncn(CCc2ccc3ccccc3c2)c2nc(Sc3cc4c(cc3Br)OCO4)nc1-2` [Example 303, 8-[(6-Bromo-1,3-benzodioxol-5-yl)thio]-3-[2-(2-naphthyl)ethyl]-3H-purin-6-amine], the “% Inhibition” value is 21.0%.

`COc1ccc(C#N)cc1Sc1nc2c(N)ncn(CCc3ccccc3)c-2n1` [Example 305, 3-{[6-Amino-3-(2-phenylethyl)-3H-purin-8-yl]thio}-4-methoxybenzonitrile]: the “% Inhibition” value is 29.0%.

In the case of `COc1ccc(C#N)cc1Sc1nc2c(N)ncn(CCc3ccccc3Cl)c-2n1` [Example 307, 3-({6-Amino-3-[2-(2-chlorophenyl)ethyl]-3H-purin-8-yl}thio)-4-methoxybenzonitrile], the “% Inhibition” value was 40.0%.

`COc1cccc(CCn2cnc(N)c3nc(Sc4cc5c(cc4Br)OCO5)nc2-3)c1` [Example 309, 8-[(6-Bromo-1,3-benzodioxol-5-yl)thio]-3-[2-(3-methoxyphenyl)ethyl]-3H-purin-6-amine]: the “% Inhibition” value is 25.0%.

In the case of `COc1ccc(I)c(Sc2nc3c(N)ncn(CCc4ccc(I)cc4)c-3n2)c1` [Example 311, 8-[(2-Iodo-5-methoxyphenyl)thio]-3-[2-(4-iodophenyl)ethyl]-3H-purin-6-amine], the “% Inhibition” value amounted to 0.0%.

For `COc1ccc(F)cc1Sc1nc2c(N)ncn(CCc3ccccc3)c-2n1` [Example 313, 8-[(5-Fluoro-2-methoxyphenyl)thio]-3-(2-phenylethyl)-3H-purin-6-amine], the “% Inhibition” value came out at 3.0%.

In the case of `COc1ccc(C)cc1Sc1nc2c(N)ncn(CCc3ccccc3)c-2n1` [Example 315, 8-[(2-Methoxy-5-methylphenyl)thio]-3-(2-phenylethyl)-3H-purin-6-amine], the “% Inhibition” value came out at 21.0%.

For the compound `COc1ccc(F)cc1Sc1nc2c(N)ncn(CCc3ccccc3Cl)c-2n1` [Example 317, 3-[2-(2-Chlorophenyl)ethyl]-8-[(5-fluoro-2-methoxyphenyl)thio]-3H-purin-6-amine], the “% Inhibition” value turned out to be 0.0%.

Regarding `COc1ccc([N+](=O)[O-])cc1Sc1nc2c(N)ncn(CCc3ccccc3Cl)c-2n1` [Example 319, 3-[2-(2-Chlorophenyl)ethyl]-8-[(2-methoxy-5-nitrophenyl)thio]-3H-purin-6-amine], the “% Inhibition” value is given as 27.0%.

Consider `N#Cc1cc2c(cc1Sc1nc3c(N)ncn(CCc4ccccc4)c-3n1)OCO2` [Example 321, 6-{[6-Amino-3-(2-phenylethyl)-3H-purin-8-yl]thio}-1,3-benzodioxole-5-carbonitrile], for which the “% Inhibition” value came out at 49.0%.

As to `COc1ccc(I)c(Sc2nc3c(N)ncn(CCc4ccccc4)c-3n2)c1` [Example 323, 8-[(2-Iodo-5-methoxyphenyl)thio]-3-(2-phenylethyl)-3H-purin-6-amine], the “% Inhibition” value amounted to 0.0%.

As for `COc1ccc(C)cc1Sc1nc2c(N)ncn(CCc3ccccc3Cl)c-2n1` [Example 325, 3-[2-(2-Chlorophenyl)ethyl]-8-[(2-methoxy-5-methylphenyl)thio]-3H-purin-6-amine], the “% Inhibition” value was found to be 0.0%.

As to `N#Cc1cc2c(cc1Sc1nc3c(N)ncn(CCc4ccccc4Cl)c-3n1)OCO2` [Example 327, 6-({6-Amino-3-[2-(2-chlorophenyl)ethyl]-3H-purin-8-yl}thio)-1,3-benzodioxole-5-carbonitrile], the “% Inhibition” value is 33.0%.

The experiment is the same for the next values; noted with them: BODIPY-GM 10 nM, Hsp90 30 nM.
`Nc1ncnc2c1nc(Sc1cc3c(cc1Br)OCO3)n2CCc1ccccc1C(F)(F)F` [Example 290, 8-[(6-Bromo-1,3-benzodioxol-5-yl)thio]-9-{2-[2-(trifluoromethyl)phenyl]ethyl}-9H-purin-6-amine] gave a 50% inhibitory concentration (IC50) of 0.07 µM.

Turning to `Nc1ncnc2c1nc(Sc1ccc3c(c1)OC(F)(F)O3)n2CCc1ccccc1` [Example 292, 8-[(2,2-Difluoro-1,3-benzodioxol-5-yl)thio]-9-(2-phenylethyl)-9H-purin-6-amine], the IC50 was above 25 µM.

`Nc1ncnc2c1nc(Sc1ccc3c(c1)OC(F)(F)O3)n2CCc1ccccc1Cl` [Example 294, 9-[2-(2-Chlorophenyl)ethyl]-8-[(2,2-difluoro-1,3-benzodioxol-5-yl)thio]-9H-purin-6-amine] yielded an IC50 above 25 µM.

Compound `COc1ccc(CCn2c(Sc3cc4c(cc3Br)OCO4)nc3c(N)ncnc32)cc1OC` [Example 296, 8-[(6-Bromo-1,3-benzodioxol-5-yl)thio]-9-[2-(3,4-dimethoxyphenyl)ethyl]-9H-purin-6-amine] gave an IC50 of 0.35 µM.

`COc1cccc(Sc2nc3c(N)ncnc3n2CC(=O)c2ccccc2)c1` [Example 298, 2-{6-Amino-8-[(3-methoxyphenyl)thio]-9H-purin-9-yl}-1-phenylethanone] showed an IC50 above 25 µM.

With `Nc1ncnc2c1nc(Sc1cc3c(cc1Br)OCO3)n2CCc1ccc(O)cc1` [Example 300, 4-(2-{6-Amino-8-[(6-bromo-1,3-benzodioxol-5-yl)thio]-9H-purin-9-yl}ethyl)phenol], the IC50 amounted to 0.4 µM.

With `Nc1ncnc2c1nc(Sc1cc3c(cc1Br)OCO3)n2CCc1ccc2ccccc2c1` [Example 302, 8-[(6-Bromo-1,3-benzodioxol-5-yl)thio]-9-[2-(2-naphthyl)ethyl]-9H-purin-6-amine], the IC50 is above 25 µM.

Turning to `COc1ccc(C#N)cc1Sc1nc2c(N)ncnc2n1CCc1ccccc1` [Example 304, 3-{[6-Amino-9-(2-phenylethyl)-9H-purin-8-yl]thio}-4-methoxybenzonitrile], the IC50 is above 25 µM.

For `COc1ccc(C#N)cc1Sc1nc2c(N)ncnc2n1CCc1ccccc1Cl` [Example 306, 3-({6-Amino-9-[2-(2-chlorophenyl)ethyl]-9H-purin-8-yl}thio)-4-methoxybenzonitrile], the IC50 was above 25 µM.

Compound `COc1cccc(CCn2c(Sc3cc4c(cc3Br)OCO4)nc3c(N)ncnc32)c1` [Example 308, 8-[(6-Bromo-1,3-benzodioxol-5-yl)thio]-9-[2-(3-methoxyphenyl)ethyl]-9H-purin-6-amine] came in with an IC50 of 0.18 µM.

The compound `COc1ccc(I)c(Sc2nc3c(N)ncnc3n2CCc2ccc(I)cc2)c1` [Example 310, 8-[(2-Iodo-5-methoxyphenyl)thio]-9-[2-(4-iodophenyl)ethyl]-9H-purin-6-amine] had an IC50 above 25 µM.

With `COc1ccc(F)cc1Sc1nc2c(N)ncnc2n1CCc1ccccc1` [Example 312, 8-[(5-Fluoro-2-methoxyphenyl)thio]-9-(2-phenylethyl)-9H-purin-6-amine], the IC50 was above 25 µM.

`COc1ccc(C)cc1Sc1nc2c(N)ncnc2n1CCc1ccccc1` [Example 314, 8-[(2-Methoxy-5-methylphenyl)thio]-9-(2-phenylethyl)-9H-purin-6-amine] registered an IC50 of 6.8 µM.

Compound `COc1ccc(F)cc1Sc1nc2c(N)ncnc2n1CCc1ccccc1Cl` [Example 316, 9-[2-(2-Chlorophenyl)ethyl]-8-[(5-fluoro-2-methoxyphenyl)thio]-9H-purin-6-amine] came in with an IC50 of 18 µM.

As to `COc1ccc([N+](=O)[O-])cc1Sc1nc2c(N)ncnc2n1CCc1ccccc1Cl` [Example 318, 9-[2-(2-Chlorophenyl)ethyl]-8-[(2-methoxy-5-nitrophenyl)thio]-9H-purin-6-amine], the IC50 is 7 µM.

In turn, `N#Cc1cc2c(cc1Sc1nc3c(N)ncnc3n1CCc1ccccc1)OCO2` [Example 320, 6-{[6-Amino-9-(2-phenylethyl)-9H-purin-8-yl]thio}-1,3-benzodioxole-5-carbonitrile] had an IC50 of 0.24 µM.

On to `COc1ccc(I)c(Sc2nc3c(N)ncnc3n2CCc2ccccc2)c1` [Example 322, 8-[(2-Iodo-5-methoxyphenyl)thio]-9-(2-phenylethyl)-9H-purin-6-amine], for which the IC50 is 0.1 µM.

`COc1ccc(C)cc1Sc1nc2c(N)ncnc2n1CCc1ccccc1Cl` [Example 324, 9-[2-(2-Chlorophenyl)ethyl]-8-[(2-methoxy-5-methylphenyl)thio]-9H-purin-6-amine]: the IC50 is 2.8 µM.

`N#Cc1cc2c(cc1Sc1nc3c(N)ncnc3n1CCc1ccccc1Cl)OCO2` [Example 326, 6-({6-Amino-9-[2-(2-chlorophenyl)ethyl]-9H-purin-8-yl}thio)-1,3-benzodioxole-5-carbonitrile]: the IC50 is 0.035 µM.

The values above are taken from patent publication US7595401B2, “Therapeutic compounds and their use in cancer” (Myriad Pharmaceuticals, Inc., priority 2006, dated 2009).
